The record followed here is ChEMBL document CHEMBL4689842, “EUbOPEN Chemogenomics Library wave 1” (2021).

What all share (format): toxicity, cell-based
Data set [1] has as its system Fibroblast. The data set can be described thus: Incucyte cell viability with human fibroblast. Conditions: 10 µM, compound concentration 10 uM.
Data set [2] has as its system HEK-293T. Briefly: Incucyte cell viability with HEK293T. To be noted: human, 10 µM, compound concentration 10 uM.
The test system of data set [3] is U2OS. The data set can be described thus: Incucyte cell viability with U2OS. To be noted: human, 10 µM, compound concentration 10 uM.
The mark [4] stands for this setting: 0 h, replicate number 1, timepoint 0 hours.
[5] abbreviates: 0 h, replicate number 2, timepoint 0 hours.
[6] abbreviates: 6 h, replicate number 1, timepoint 6 hours.
Where [7] appears, read: 6 h, replicate number 2, timepoint 6 hours.
Setting [8] is: 12 h, replicate number 1, timepoint 12 hours.
Setting [9] is: 12 h, replicate number 2, timepoint 12 hours.
Setting [10] is: 18 h, replicate number 1, timepoint 18 hours.
[11] abbreviates: 24 h, replicate number 1, timepoint 24 hours.
Where [12] appears, read: 24 h, replicate number 2, timepoint 24 hours.
[13] abbreviates: 18 h, replicate number 2, timepoint 18 hours.
Also: filed as whole numbers so only -1 and 0 and 1 occur.

In the case of `O=C1NCN(c2ccccc2)C12CCN(CC1COc3ccccc3O1)CC2` (stereo unspecified) [SPIROXATRINE], the “Growth Rate” value is listed as 0 in data set [1] (setting [4]); 1 in data set [1] (setting [5]); 1 in data set [1] (setting [6]); 0 in data set [1] (setting [7]); 1 in data set [1] (setting [8]); 0 in data set [1] (setting [9]). Moreover, the “Growth Rate” value came out at 0 in data set [1] (setting [10]); 1 in data set [1] (setting [11]); 0 in data set [1] (setting [12]); 1 in data set [2] (setting [4]); 0 in data set [2] (setting [5]); 0 in data set [2] (setting [6]). The “Growth Rate” value in data set [2] (setting [8]) came to 0; in data set [2] (setting [10]), 0; in data set [2] (setting [11]), 0; in data set [3] (setting [5]) it was 0; in data set [3] (setting [7]), 1; in data set [3] (setting [8]), 1. Further, the “Growth Rate” value in data set [3] (setting [10]) and in data set [3] (setting [11]) was 1 each time.

Consider `C[C@@H]1CN(c2cc(-c3n[nH]c4ccc(OC5(C)CC5)cc34)ncn2)C[C@H](C)O1` [MLi-2], for which the “Growth Rate” value was 0 in data set [1] (setting [4]); 1 in data set [1] (setting [6]); 0 in data set [1] (setting [7]); 1 in data set [1] (setting [8]); 0 in data set [1] (setting [9]); 1 in data set [1] (setting [10]). Besides, the “Growth Rate” value in data set [1] (setting [13]) stood at 0; in data set [1] (setting [11]), 0; in data set [2] (setting [4]), 0; in data set [2] (setting [5]) it was 1; in data set [2] (setting [6]) it was 0; in data set [2] (setting [8]), 1. In addition, the “Growth Rate” value was determined as 1 in data set [2] (setting [10]); 1 in data set [2] (setting [11]); 0 in data set [2] (setting [12]); 0 in data set [3] (setting [5]); 1 in data set [3] (setting [6]); 1 in data set [3] (setting [8]). For the same compound, the “Growth Rate” value in data set [3] (setting [10]) and in data set [3] (setting [11]) was 1 in each case.

As to `CCC(=N\O)/C(C)=C/c1ccc(F)c(C)c1` [A-226], the “Growth Rate” value is 0 in data set [1] (setting [4]); 0 in data set [1] (setting [6]); 0 in data set [1] (setting [8]); 0 in data set [1] (setting [10]); 1 in data set [1] (setting [13]); 1 in data set [1] (setting [11]). The “Growth Rate” value in data set [2] (setting [5]), in data set [2] (setting [6]), in data set [2] (setting [8]), in data set [2] (setting [10]), in data set [2] (setting [11]) and in data set [3] (setting [4]) was 0 each time. Besides, the “Growth Rate” value came out at 1 in data set [3] (setting [5]); 0 in data set [3] (setting [6]); 1 in data set [3] (setting [8]); 0 in data set [3] (setting [10]); 1 in data set [3] (setting [13]); 0 in data set [3] (setting [11]). For the same compound, the “Growth Rate” value in data set [3] (setting [12]) stood at 1.

In the case of `CCCNS(=O)(=O)Nc1ncnc(OCCOc2ncc(Br)cn2)c1-c1ccc(Br)cc1`, the “Growth Rate” value in data set [1] (setting [4]) was determined as 0; in data set [1] (setting [6]), 0; in data set [1] (setting [8]), 0; in data set [1] (setting [10]), 1; in data set [1] (setting [11]), 0; in data set [2] (setting [4]), 0. Also, the “Growth Rate” value in data set [2] (setting [6]), in data set [2] (setting [8]), in data set [2] (setting [10]), in data set [2] (setting [11]), in data set [3] (setting [6]) and in data set [3] (setting [8]) was 0 in each case. Also, the “Growth Rate” value in data set [3] (setting [10]) and in data set [3] (setting [11]) was 0 each time.

Take `C=CC(=O)N1CCC([C@@H]2CCNc3c(C(N)=O)c(-c4ccc(Oc5ccccc5)cc4)nn32)CC1` [ZANUBRUTINIB]: the “Growth Rate” value in data set [1] (setting [4]) worked out at 1; in data set [1] (setting [5]), 0; in data set [1] (setting [6]) it was 0; in data set [1] (setting [8]) it was 0; in data set [1] (setting [10]), 0; in data set [1] (setting [13]) it was 1. Further, the “Growth Rate” value is reported as 0 in data set [1] (setting [11]); 1 in data set [1] (setting [12]); 0 in data set [2] (setting [4]); 0 in data set [2] (setting [8]); 0 in data set [2] (setting [10]); 0 in data set [2] (setting [11]). Also, the “Growth Rate” value in data set [3] (setting [4]), in data set [3] (setting [6]), in data set [3] (setting [8]), in data set [3] (setting [10]) and in data set [3] (setting [11]) was 0 in each case.

As for `CO[C@H]1CC[C@H](CNc2ccc(S(=O)(=O)NC(=O)c3ccc(N4CCN(CC5=C(c6ccc(Cl)cc6)CC(C)(C)CC5)CC4)cc3Oc3cnc4[nH]ccc4c3)cc2[N+](=O)[O-])CC1` [A-1211212], the “Growth Rate” value in data set [1] (setting [4]), in data set [1] (setting [6]), in data set [1] (setting [8]), in data set [1] (setting [10]), in data set [1] (setting [11]) and in data set [2] (setting [4]) was 0 each time. In addition, the “Growth Rate” value in data set [2] (setting [7]) is on record as 1; in data set [2] (setting [9]), 1; in data set [2] (setting [10]) it was 1; in data set [2] (setting [11]), 1; in data set [2] (setting [12]), 0; in data set [3] (setting [4]), 0. Also, the “Growth Rate” value came out at 1 in data set [3] (setting [6]); 0 in data set [3] (setting [8]); 1 in data set [3] (setting [9]); 0 in data set [3] (setting [10]); 0 in data set [3] (setting [11]); 1 in data set [3] (setting [12]).

For `Cc1nc(-c2ccc(C(F)(F)F)cc2)sc1COc1ccc([C@H](CC(=O)O)c2ccon2)cc1`, the “Growth Rate” value in data set [1] (setting [4]) is 0; in data set [1] (setting [6]), 0; in data set [1] (setting [8]) it was 1; in data set [1] (setting [9]) it was 0; in data set [1] (setting [10]), 1; in data set [1] (setting [13]), 0. In addition, the “Growth Rate” value in data set [1] (setting [11]) stood at 0; in data set [2] (setting [5]), 0; in data set [2] (setting [6]), 0; in data set [2] (setting [7]) it was 1; in data set [2] (setting [8]) it was 0; in data set [2] (setting [10]), 0. Further, the “Growth Rate” value in data set [2] (setting [11]) was 0; in data set [3] (setting [5]) it was 0; in data set [3] (setting [7]), 0; in data set [3] (setting [8]), 0; in data set [3] (setting [9]), 1; in data set [3] (setting [10]), 0. Besides, the “Growth Rate” value in data set [3] (setting [13]) was 1; in data set [3] (setting [11]), 0; in data set [3] (setting [12]), 1.

Take `Cc1ccc(-c2ccc3c(ccc4sc5c(c43)NC[C@@H](C)NC5=O)n2)cn1`: the “Growth Rate” value in data set [1] (setting [4]) turned out to be 0; in data set [2] (setting [4]), 1; in data set [2] (setting [12]), 1; in data set [3] (setting [5]), 0; in data set [3] (setting [8]) it was 1; in data set [3] (setting [10]), 1. Also, the “Growth Rate” value in data set [3] (setting [11]) turned out to be 1.

Regarding `COc1cc(-c2cn(C)c(=O)c3cnccc23)c(OC)cc1CN(C)C`, the “Growth Rate” value is 0 in data set [1] (setting [4]); 0 in data set [1] (setting [6]); 1 in data set [1] (setting [7]); 0 in data set [1] (setting [8]); 0 in data set [1] (setting [10]); 0 in data set [1] (setting [11]). For the same compound, the “Growth Rate” value in data set [2] (setting [4]) stood at 1; in data set [2] (setting [7]), 1; in data set [2] (setting [8]), 1; in data set [2] (setting [10]), 0; in data set [2] (setting [11]), 0; in data set [2] (setting [12]), 1. Further, the “Growth Rate” value in data set [3] (setting [4]) amounted to 0; in data set [3] (setting [6]), 0; in data set [3] (setting [7]), 1; in data set [3] (setting [8]), 1; in data set [3] (setting [10]) it was 0; in data set [3] (setting [13]), 1. Further, in data set [3] (setting [11]), the “Growth Rate” value is recorded as 1.

Take `CNC[C@H](O)c1cccc(O)c1` [PHENYLEPHRINE]: the “Growth Rate” value in data set [1] (setting [4]) is 1; in data set [1] (setting [5]) it was 0; in data set [1] (setting [8]) it was 1; in data set [1] (setting [13]), 1; in data set [2] (setting [4]), 0; in data set [2] (setting [6]) it was 0. In addition, the “Growth Rate” value in data set [2] (setting [8]) is 0; in data set [2] (setting [10]) it was 0; in data set [2] (setting [11]) it was 1; in data set [2] (setting [12]) it was 0; in data set [3] (setting [5]), 0; in data set [3] (setting [7]), 0. For the same compound, the “Growth Rate” value in data set [3] (setting [8]), in data set [3] (setting [10]) and in data set [3] (setting [11]) was 1 each time.

For the compound `O=C1NC(c2ccccn2)Sc2ccccc21` (stereo unspecified) [BTZO-4], the “Growth Rate” value in data set [1] (setting [4]) was 0; in data set [1] (setting [6]), 1; in data set [1] (setting [8]), 1; in data set [1] (setting [10]) it was 1; in data set [1] (setting [11]), 0; in data set [1] (setting [12]) it was 1. Besides, the “Growth Rate” value came out at 1 in data set [2] (setting [4]); 0 in data set [2] (setting [6]); 0 in data set [2] (setting [8]); 0 in data set [2] (setting [10]); 1 in data set [2] (setting [13]); 1 in data set [2] (setting [11]). Moreover, the “Growth Rate” value amounted to 0 in data set [2] (setting [12]); 0 in data set [3] (setting [4]); 0 in data set [3] (setting [6]); 0 in data set [3] (setting [8]); 1 in data set [3] (setting [9]); 0 in data set [3] (setting [10]). The “Growth Rate” value was 1 in data set [3] (setting [13]), 0 in data set [3] (setting [11]) and 1 in data set [3] (setting [12]).

In the case of `Cc1ccc2nc(CNCCCOc3ccccc3)cc(O)c2c1` [UCSF924], the “Growth Rate” value in data set [1] (setting [5]) stood at 1; in data set [1] (setting [6]), 0; in data set [1] (setting [7]), 1; in data set [1] (setting [8]) it was 0; in data set [1] (setting [10]), 0; in data set [1] (setting [11]), 0. For the same compound, the “Growth Rate” value in data set [2] (setting [4]) was 0; in data set [2] (setting [5]), 1; in data set [2] (setting [6]), 0; in data set [2] (setting [8]) it was 0; in data set [2] (setting [10]), 0; in data set [2] (setting [11]), 0. Also, the “Growth Rate” value in data set [3] (setting [4]), in data set [3] (setting [6]), in data set [3] (setting [8]), in data set [3] (setting [10]) and in data set [3] (setting [11]) was 0 throughout.

With `Cc1c(C(=O)O)cc(-c2ccc(C3CCNCC3)cc2)c2ccc(-c3ccc(C(F)(F)F)cc3)cc12.Cl`, the “Growth Rate” value in data set [1] (setting [4]) is listed as 0; in data set [1] (setting [5]), 1; in data set [1] (setting [6]), 0; in data set [1] (setting [7]), 1; in data set [1] (setting [8]), 0; in data set [1] (setting [10]) it was 0. Besides, the “Growth Rate” value in data set [1] (setting [11]), in data set [2] (setting [5]), in data set [2] (setting [6]), in data set [2] (setting [8]), in data set [2] (setting [10]) and in data set [2] (setting [11]) was 0 in each case. The “Growth Rate” value turned out to be 0 in data set [3] (setting [4]); 1 in data set [3] (setting [8]); 0 in data set [3] (setting [10]); 1 in data set [3] (setting [13]); 0 in data set [3] (setting [11]); 1 in data set [3] (setting [12]).
